Source: publication PMC6485449 (Clinical cancer research : an official journal of the …, 2013)
Several values for one entry are separate records, joined by “and”; a condition that tells them apart may be missing. Equal values may be shown once. Entries after “also recorded” stand apart in the source; their conditions may differ. Read-outs that look alike come from different tables or passages of the source.

Key:
[1] = system: PAR synthesis in LoVo cells; assay: Intracellular PAR formation assay; assay type: cell-based; details: Homo sapiens
LoVo cells = assay: Temozolomide potentiation; assay type: cell-based, human
[2] = system: Capan-1 (BRCA2 deficient); assay: Single-agent cytotoxicity assay, Capan-1; assay type: cell-based, human
PC-3 (PTEN deficient) = assay: Single-agent 2-D cytotoxicity assay, PC-3; assay type: cell-based; details: Homo sapiens, read-out: SF50 PC-3 (PTEN deficient)
MDA-MB-231 = assay: Single-agent 2-D cytotoxicity assay, MDA-MB-231; assay type: cell-based; details: Homo sapiens, MDA-MB-231, read-out: SF50 MDA-MB-231
MRC-5 (Normal) = assay: Single-agent 2-D cytotoxicity assay, MRC-5; assay type: cell-based, human
[3] = target: Poly (ADP-ribose) Glycohydrolase (PARG) (Homo sapiens, UniProt Q86W56); assay: PARG activity assay; assay type: biochemical; details: concentrations up to 1 μM; data not shown
[4] = target: potassium ion channel hERG (Homo sapiens, UniProt Q12809); assay: hERG in vitro assay; details: concentrations as high as 100 μM
[5] = Liver microsome stability, rat; assay type: in vitro ADME; details: rats, two hours, 1 μM
[6] = Liver microsome stability, dog; assay type: in vitro ADME; details: dogs, two hours, 1 μM
[7] = Liver microsome stability, human; assay type: in vitro ADME; details: humans, two hours, 1 μM
CYP1A2 = target: T1, CYP1A2 (Homo sapiens, UniProt P05177); assay: CYP450 inhibition, CYP1A2; assay type: in vitro ADME; details: concentrations up to 10 μM; data not shown
T1 sequence (P05177 1-516): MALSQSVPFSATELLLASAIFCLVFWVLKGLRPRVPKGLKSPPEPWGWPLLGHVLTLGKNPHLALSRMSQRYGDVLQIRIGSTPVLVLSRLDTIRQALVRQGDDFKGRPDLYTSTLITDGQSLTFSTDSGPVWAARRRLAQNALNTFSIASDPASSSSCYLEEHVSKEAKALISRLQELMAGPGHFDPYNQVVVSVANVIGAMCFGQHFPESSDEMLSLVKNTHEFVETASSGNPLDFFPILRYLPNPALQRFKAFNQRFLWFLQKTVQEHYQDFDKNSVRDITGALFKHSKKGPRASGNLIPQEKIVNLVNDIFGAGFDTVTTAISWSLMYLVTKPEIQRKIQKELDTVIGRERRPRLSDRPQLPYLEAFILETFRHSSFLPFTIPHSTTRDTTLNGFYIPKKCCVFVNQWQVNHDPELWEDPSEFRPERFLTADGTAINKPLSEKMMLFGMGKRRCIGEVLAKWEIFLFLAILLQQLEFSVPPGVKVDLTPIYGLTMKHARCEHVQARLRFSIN

CYP2C9 = CYP2C9 (Homo sapiens, UniProt P11712); assay: CYP450 inhibition, CYP2C9; assay type: in vitro ADME; details: concentrations up to 10 μM; data not shown
CYP2C19 = CYP2C19 (Homo sapiens, UniProt P33261); assay: CYP450 inhibition, CYP2C19; assay type: in vitro ADME; details: concentrations up to 10 μM; data not shown
CYP2D6 = CYP2D6 (Homo sapiens, UniProt P10635); assay: CYP450 inhibition, CYP2D6; assay type: in vitro ADME; details: concentrations up to 10 μM; data not shown
CYP3A4 = CYP3A4 (Homo sapiens, UniProt P08684); assay: CYP450 inhibition, CYP3A4; assay type: in vitro ADME; details: concentrations up to 10 μM; data not shown
MX-1 tumor xenografts [8] = assay: MX-1 xenograft, single agent; assay type: in vivo, mice
MX-1 tumor PAR levels = assay: PAR assay in vivo; design: species or system mice
MDA-MB-468 xenograft = assay: MDA-MB-468 xenograft, single agent; assay type: in vivo, mice
LNCap xenograft = assay: LNCap xenograft, single agent; assay type: in vivo, mice; details: 0.33 mg/kg oral QDx28, vs vehicle-treated control
MX-1 cells = assay: SN-38 chemo-sensitization assay; assay type: cell-based, human; details: MX-1 cells in vitro, 5 days
[9] = Combination with platinum drugs in vitro; assay type: cell-based; details: data not shown
MX-1 tumor xenografts [10] = assay: Cisplatin combination study, MX-1 xenograft; assay type: in vivo, mice
MX-1 tumor xenografts [11] = assay: Carboplatin combination study, MX-1 xenograft; assay type: in vivo, mice
recombinant human PARP1 = recombinant human PARP1 (Homo sapiens, UniProt P09874); details: for off-rate / on-rate: immobilized rhPARP1, Biacore T200
[12] = Homo sapiens, CAPAN-1, read-out: Capan-1 Cytotoxicity IC50
[13] = Homo sapiens, CAPAN-1, read-out: SF50 Capan-1 (BRCA2 deficient)
[14] = Homo sapiens, MRC5, read-out: SF50 MRC-5 (Normal)
[15] = 2 hours after single oral dose (BMN 673 1 mg/kg; olaparib 100 mg/kg)
[16] = 8 hours after single oral dose (BMN 673 1 mg/kg; olaparib 100 mg/kg)
[17] = 24 hours after single oral dose (BMN 673 1 mg/kg; olaparib 100 mg/kg)

recombinant human PARP1, sequence (P09874 662-1011): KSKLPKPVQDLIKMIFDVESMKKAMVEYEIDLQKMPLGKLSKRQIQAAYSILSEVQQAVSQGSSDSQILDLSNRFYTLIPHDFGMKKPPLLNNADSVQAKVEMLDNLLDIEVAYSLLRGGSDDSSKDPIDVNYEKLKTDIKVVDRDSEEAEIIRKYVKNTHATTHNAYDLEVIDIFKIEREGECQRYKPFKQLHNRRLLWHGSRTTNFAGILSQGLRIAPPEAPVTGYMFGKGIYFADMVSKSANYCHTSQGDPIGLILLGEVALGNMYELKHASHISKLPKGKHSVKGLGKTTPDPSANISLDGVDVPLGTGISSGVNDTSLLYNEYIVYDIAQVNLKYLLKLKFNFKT
CYP2C19, sequence (P33261 whole entry): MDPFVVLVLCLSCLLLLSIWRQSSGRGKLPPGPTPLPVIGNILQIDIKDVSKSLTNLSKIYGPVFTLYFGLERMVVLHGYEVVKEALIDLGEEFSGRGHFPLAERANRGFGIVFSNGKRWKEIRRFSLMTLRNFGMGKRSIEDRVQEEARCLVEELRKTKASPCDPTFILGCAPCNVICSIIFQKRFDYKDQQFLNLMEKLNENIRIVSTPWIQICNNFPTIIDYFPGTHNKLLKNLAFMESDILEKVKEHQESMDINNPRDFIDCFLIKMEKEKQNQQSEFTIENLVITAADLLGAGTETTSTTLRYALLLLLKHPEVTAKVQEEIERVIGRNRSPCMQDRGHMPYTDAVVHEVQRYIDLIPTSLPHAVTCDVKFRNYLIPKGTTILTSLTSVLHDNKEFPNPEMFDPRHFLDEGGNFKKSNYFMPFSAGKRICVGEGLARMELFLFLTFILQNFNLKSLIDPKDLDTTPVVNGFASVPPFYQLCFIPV
CYP3A4, sequence (P08684 whole entry): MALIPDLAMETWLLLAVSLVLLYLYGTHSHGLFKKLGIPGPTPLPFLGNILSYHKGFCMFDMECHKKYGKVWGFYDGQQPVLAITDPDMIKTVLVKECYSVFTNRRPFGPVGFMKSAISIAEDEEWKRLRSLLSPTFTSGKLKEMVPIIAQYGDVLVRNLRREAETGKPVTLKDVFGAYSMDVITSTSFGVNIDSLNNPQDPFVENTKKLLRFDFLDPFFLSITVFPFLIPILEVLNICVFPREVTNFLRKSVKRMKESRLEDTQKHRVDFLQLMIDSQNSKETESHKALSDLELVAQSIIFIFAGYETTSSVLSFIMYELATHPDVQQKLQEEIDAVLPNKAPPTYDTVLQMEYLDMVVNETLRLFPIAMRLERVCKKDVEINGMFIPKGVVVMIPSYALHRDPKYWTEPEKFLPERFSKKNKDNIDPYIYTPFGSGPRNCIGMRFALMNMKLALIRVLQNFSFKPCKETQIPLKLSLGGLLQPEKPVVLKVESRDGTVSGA
CYP2C9, sequence (P11712 whole entry): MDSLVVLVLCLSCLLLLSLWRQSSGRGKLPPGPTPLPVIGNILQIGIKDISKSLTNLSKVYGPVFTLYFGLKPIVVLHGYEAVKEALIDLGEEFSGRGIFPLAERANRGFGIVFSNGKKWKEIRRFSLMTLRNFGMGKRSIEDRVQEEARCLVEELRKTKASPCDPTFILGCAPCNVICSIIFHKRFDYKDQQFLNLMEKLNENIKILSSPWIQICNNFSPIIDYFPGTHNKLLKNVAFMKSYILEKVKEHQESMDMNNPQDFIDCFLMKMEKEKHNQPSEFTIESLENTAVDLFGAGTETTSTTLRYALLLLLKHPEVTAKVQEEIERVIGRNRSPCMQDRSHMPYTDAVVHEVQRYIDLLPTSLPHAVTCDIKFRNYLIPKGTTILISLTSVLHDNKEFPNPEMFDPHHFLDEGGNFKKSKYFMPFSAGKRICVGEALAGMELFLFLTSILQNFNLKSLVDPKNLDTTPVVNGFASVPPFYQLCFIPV
potassium ion channel hERG, sequence (Q12809 whole entry): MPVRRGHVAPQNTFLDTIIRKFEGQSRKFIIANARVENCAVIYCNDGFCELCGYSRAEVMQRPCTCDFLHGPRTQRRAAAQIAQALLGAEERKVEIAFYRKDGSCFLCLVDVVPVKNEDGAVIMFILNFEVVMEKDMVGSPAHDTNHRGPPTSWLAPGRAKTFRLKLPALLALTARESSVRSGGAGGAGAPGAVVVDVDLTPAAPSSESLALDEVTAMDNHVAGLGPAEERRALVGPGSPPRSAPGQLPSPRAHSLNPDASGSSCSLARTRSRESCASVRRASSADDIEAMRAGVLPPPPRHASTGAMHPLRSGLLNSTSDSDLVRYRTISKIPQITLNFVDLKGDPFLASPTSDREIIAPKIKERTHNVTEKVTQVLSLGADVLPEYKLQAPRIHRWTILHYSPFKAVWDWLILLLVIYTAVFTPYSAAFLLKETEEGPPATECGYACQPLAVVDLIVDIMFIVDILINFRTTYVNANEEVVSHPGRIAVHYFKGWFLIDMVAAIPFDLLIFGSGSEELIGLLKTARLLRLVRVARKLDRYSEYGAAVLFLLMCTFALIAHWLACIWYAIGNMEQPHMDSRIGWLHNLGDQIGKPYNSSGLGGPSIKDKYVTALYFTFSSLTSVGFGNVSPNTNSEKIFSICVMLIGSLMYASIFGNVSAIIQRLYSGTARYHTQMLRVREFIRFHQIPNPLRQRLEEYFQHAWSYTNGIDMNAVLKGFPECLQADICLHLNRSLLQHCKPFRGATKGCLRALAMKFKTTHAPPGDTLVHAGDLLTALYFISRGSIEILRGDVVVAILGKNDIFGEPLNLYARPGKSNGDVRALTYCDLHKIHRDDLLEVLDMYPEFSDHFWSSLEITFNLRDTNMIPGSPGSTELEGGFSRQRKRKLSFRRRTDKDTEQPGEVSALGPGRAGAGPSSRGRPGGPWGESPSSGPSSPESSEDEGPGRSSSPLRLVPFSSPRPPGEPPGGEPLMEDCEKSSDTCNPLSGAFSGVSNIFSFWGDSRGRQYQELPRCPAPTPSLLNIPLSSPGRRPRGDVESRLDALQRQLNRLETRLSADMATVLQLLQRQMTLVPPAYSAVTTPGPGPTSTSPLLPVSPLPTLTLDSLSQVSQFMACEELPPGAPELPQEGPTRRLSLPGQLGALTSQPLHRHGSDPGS
Poly (ADP-ribose) Glycohydrolase (PARG), sequence (Q86W56 whole entry, species assumed): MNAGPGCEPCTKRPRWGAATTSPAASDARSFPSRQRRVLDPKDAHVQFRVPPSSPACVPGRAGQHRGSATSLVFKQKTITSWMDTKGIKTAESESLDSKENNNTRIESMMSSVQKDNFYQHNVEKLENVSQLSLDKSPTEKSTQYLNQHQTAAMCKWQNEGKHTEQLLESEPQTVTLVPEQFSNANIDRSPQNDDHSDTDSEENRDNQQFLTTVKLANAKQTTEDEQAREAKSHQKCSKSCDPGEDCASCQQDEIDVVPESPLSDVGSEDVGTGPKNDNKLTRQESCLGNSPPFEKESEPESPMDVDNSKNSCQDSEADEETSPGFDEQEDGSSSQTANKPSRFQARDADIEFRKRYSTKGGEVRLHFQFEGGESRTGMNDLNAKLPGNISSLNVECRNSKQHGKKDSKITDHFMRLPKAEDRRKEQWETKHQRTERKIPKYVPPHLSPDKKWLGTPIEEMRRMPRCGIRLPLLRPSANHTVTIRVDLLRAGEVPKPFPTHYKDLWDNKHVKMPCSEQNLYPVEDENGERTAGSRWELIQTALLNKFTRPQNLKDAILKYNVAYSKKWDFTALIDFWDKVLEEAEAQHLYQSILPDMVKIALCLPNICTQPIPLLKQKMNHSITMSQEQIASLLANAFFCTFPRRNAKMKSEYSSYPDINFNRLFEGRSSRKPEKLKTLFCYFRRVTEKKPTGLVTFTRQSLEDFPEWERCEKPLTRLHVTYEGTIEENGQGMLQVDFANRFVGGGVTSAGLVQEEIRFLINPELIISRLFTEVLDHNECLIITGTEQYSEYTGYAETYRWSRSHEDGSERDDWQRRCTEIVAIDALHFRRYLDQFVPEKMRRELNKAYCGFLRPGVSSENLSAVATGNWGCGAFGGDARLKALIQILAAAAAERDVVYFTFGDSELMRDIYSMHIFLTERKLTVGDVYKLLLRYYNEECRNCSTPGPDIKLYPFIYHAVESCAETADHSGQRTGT
CYP2D6, sequence (P10635 whole entry): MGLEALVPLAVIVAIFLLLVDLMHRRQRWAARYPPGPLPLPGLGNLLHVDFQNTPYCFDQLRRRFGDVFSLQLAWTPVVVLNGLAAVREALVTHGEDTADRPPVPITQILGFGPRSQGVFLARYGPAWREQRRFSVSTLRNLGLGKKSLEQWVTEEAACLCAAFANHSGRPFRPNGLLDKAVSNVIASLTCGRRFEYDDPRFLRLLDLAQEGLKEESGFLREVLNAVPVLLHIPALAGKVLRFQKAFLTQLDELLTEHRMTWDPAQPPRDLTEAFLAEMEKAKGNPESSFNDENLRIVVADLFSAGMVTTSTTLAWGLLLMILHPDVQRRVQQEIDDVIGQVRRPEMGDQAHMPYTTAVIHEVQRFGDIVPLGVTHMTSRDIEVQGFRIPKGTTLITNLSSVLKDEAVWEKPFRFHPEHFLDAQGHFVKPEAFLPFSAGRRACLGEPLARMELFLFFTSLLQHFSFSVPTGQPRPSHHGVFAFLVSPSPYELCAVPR

Cn1ncnc1[C@H]1c2n[nH]c(=O)c3cc(F)cc(c23)N[C@@H]1c1ccc(F)cc1 [BMN 673, (8S,9R)-5-fluoro-8-(4-fluorophenyl)-9-(1-methyl-1H-1,2,4-triazol-5-yl)-8,9-dihydro-2H-pyrido[4,3,2-de]phthalazin-3(7H)-one]
EC50 ([1]; read-out: Cellular PAR Synthesis EC50): 2.5 nM
IC50 ([1]; read-out: intracellular PAR formation IC50): 2.5 nM
potentiation of TMZ cytotoxicity (LoVo cells; combined with 200 μM TMZ): significant potentiation
IC50 [2, 12]: 5 nM
IC50 [2, 13]: 5 nM
IC50 (PC-3 (PTEN deficient)): 4 nM
IC50 (MDA-MB-231): 1850 nM
IC50 (MRC-5 (Normal); [14]): 310 nM
effect on PARG activity [3]: no effect
hERG inhibition [4]: no significant inhibition
remaining after incubation in liver microsomes [5]: more than 90%
remaining after incubation in liver microsomes [6]: more than 90%
remaining after incubation in liver microsomes [7]: more than 90%
CYP1A2 inhibition (CYP1A2): did not inhibit
CYP2C9 inhibition (CYP2C9): did not inhibit
CYP2C19 inhibition (CYP2C19): did not inhibit
CYP2D6 inhibition (CYP2D6): did not inhibit
CYP3A4 inhibition (CYP3A4): did not inhibit
effect on tumor growth (MX-1 tumor xenografts [8]; 0.1 mg/kg oral once daily, after extended treatment (>21 days)): small effect on tumor growth
tumor re-establishment after dosing ceased (MX-1 tumor xenografts [8]; 0.165 mg/kg/dose BID x 28, followed eight weeks after dosing ceased): none of the mice had tumor re-growth; also recorded: no re-establishment of tumor
mice achieving complete response (CR) (MX-1 tumor xenografts [8]; 0.165 mg/kg/dose oral BID, 28 days): all 6 mice and 6/6
tolerability (MX-1 tumor xenografts [8]; 0.33 mg/kg and 0.1 mg/kg, 28 consecutive once daily oral doses): well tolerated
mice achieving complete response (CR, tumor impalpable) (MX-1 tumor xenografts [8]; 0.33 mg/kg oral once-a-day, 28 days): four CRs out of six
intratumoral PAR level (MX-1 tumor PAR levels; [15]): drastically decreased
intratumoral PAR level (MX-1 tumor PAR levels; [16]): drastically decreased
intratumoral PAR level (MX-1 tumor PAR levels; [17]): Partial recovery
tumor growth delay (MDA-MB-468 xenograft; 0.33 mg/kg oral QDx28, vs vehicle-treated control): 15.9 days
effectiveness of 0.165 mg/kg/dose BIDx28 vs 0.33 mg/kg/dose QDx28 (MDA-MB-468 xenograft; MDA-MB-468 xenograft): slightly more effective
tumor growth delay (LNCap xenograft): 22.8 days
potentiation of the cytotoxic effect of SN38 (MX-1 cells): potentiated
effect of combining with platinum drugs in vitro [9]: clearly additive effect
maximum average weight loss (MX-1 tumor xenografts [10]; BMN 673 0.033 mg/kg plus cisplatin 6 mg/kg IP): 3%
maximum average weight loss (MX-1 tumor xenografts [10]; BMN 673 0.1 mg/kg plus cisplatin 6 mg/kg IP): 5%
maximum average weight loss (MX-1 tumor xenografts [10]; BMN 673 0.33 mg/kg plus cisplatin 6 mg/kg IP): 6%
maximum average weight loss (MX-1 tumor xenografts [10]; BMN 673 1 mg/kg plus cisplatin 6 mg/kg IP): 11%
animal deaths (MX-1 tumor xenografts [10]; BMN 673 1 mg/kg plus cisplatin, Day 20): One animal died
growth of MX-1 tumor xenografts (MX-1 tumor xenografts [10]; BMN 673 oral once daily days 1-8 plus cisplatin 6 mg/kg IP): significantly inhibited in a dose-dependent manner
potentiation of carboplatin anti-tumor effect in vivo (MX-1 tumor xenografts [11]; BMN 673 0.33 mg/kg oral once-a-day 5 or 8 days plus carboplatin 35 mg/kg IP): significant potentiation
tolerability (MX-1 tumor xenografts [11]; BMN 673 0.33 mg/kg plus carboplatin 35 mg/kg IP): No animal lethality or significant body weight loss
off-rate (recombinant human PARP1): 0.000105 s⁻¹
on-rate (recombinant human PARP1): 368000 M⁻¹ s⁻¹
dissociation rate, times slower than that of veliparib (recombinant human PARP1; vs veliparib): ~40 times

O=C(c1cc(Cc2n[nH]c(=O)c3ccccc23)ccc1F)N1CCN(C(=O)C2CC2)CC1 [Olaparib, olaparib]
IC50 [2, 12]: 259 nM
IC50 [2, 13]: 259 nM
IC50 (PC-3 (PTEN deficient)): 787 nM
IC50 (MDA-MB-231): 6410 nM
IC50 (MRC-5 (Normal); [14]): 5830 nM
intratumoral PAR level (MX-1 tumor PAR levels; [15]): significant decrease
intratumoral PAR level (MX-1 tumor PAR levels; [16]): partial recovery
intratumoral PAR level (MX-1 tumor PAR levels; [17]): complete recovery
cisplatin sensitizing effect (MX-1 tumor xenografts [10]; olaparib 100 mg/kg oral once-a-day day 1 to 8 plus cisplatin 6 mg/kg): equivalent to the lowest dose of BMN 673
maximum body weight loss (MX-1 tumor xenografts [10]; olaparib 100 mg/kg plus cisplatin 6 mg/kg IP): 3%

CNCc1ccc(-c2[nH]c3cc(F)cc4c3c2CCNC4=O)cc1 [Rucaparib, rucaparib]
IC50 (MDA-MB-231): 5530 nM
IC50 (MRC-5 (Normal); [14]): 8530 nM

Cn1nnc2c(C(N)=O)ncn2c1=O [TMZ, temozolomide, reference compound]
inhibition at 200 µM (LoVo cells; Homo sapiens, 120 h, read-out: cell growth inhibition): ~15%

C[C@]1(c2nc3c(C(N)=O)cccc3[nH]2)CCCN1 [Veliparib, veliparib]
IC50 ([2]; read-out: Capan-1 Cytotoxicity IC50, single agent, 50% cell survival reduction): > 10000 nM
IC50 ([2]; read-out: SF50 Capan-1 (BRCA2 deficient), 2-D cytotoxicity assay): > 10000 nM
IC50 (MRC-5 (Normal); read-out: SF50 MRC-5 (Normal), 2-D cytotoxicity assay): > 10000 nM
off-rate (recombinant human PARP1): 0.0041 s⁻¹
on-rate (recombinant human PARP1): 1.74e+06 M⁻¹ s⁻¹

N.N.[Cl][Pt][Cl] [cisplatin, reference compound]
maximum average body weight loss (MX-1 tumor xenografts [10]; cisplatin alone, 6 mg/kg IP): 3%
